ChEMBL document CHEMBL1201862, “PubChem BioAssay data set” (2004)
The source made the active and inactive calls.

Legend:
[1] = A375 melanoma cell viability loss, dose response, counter-screen for MITF inhibitor project, CellTiter-Glo luminescence, dry powder, set 4 (AID 624364); type: functional, cell-based; details: A-375;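 note: A375 melanoma cells are MITF independent so this is a counter screen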
[2] = A375 melanoma cell cytotoxicity, dose response, counter-screen for MITF inhibitor project, CellTiter-Glo luminescence, dry powder, set 2 (AID 624489); type: functional, cell-based; details: A-375;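 note: actives are compounds lowering A375 viability meaning general cytotoxicity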
Major prion protein = Major prion protein (Homo sapiens, UniProt P04156); type: functional, cell-based
cells [3] = test: cells
INS1 = test: beta cell apoptosis inhibitors, cytokine rescue, dose response, luminescence, retest (AID 449756); type: functional, cell-based; details: Rattus norvegicus;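 note: cell death triggered by IL-1 beta plus TNF-alpha plus IFN-gamma mixture; protective hits raise ATP signal compared with cytokine alone wells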
[4] = Shn3 3'UTR reporter inhibitors, dose response, cell-based, Clone20 osteoblasts, firefly luciferase, cherry-picked (AID 624132); type: functional;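 note: firefly luciferase luminescence from reporter carrying the Shn3 3'UTR in osteoblasts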
[5] = HepG2 cell cytotoxicity, dose response, cytotoxicity control for Shn3 inhibitor project, CellTiter-Glo, cherry-picked (AID 624134); type: functional, cell-based
[6] = control 3'UTR Renilla luciferase suppression, dose response, counter-screen for Shn3 inhibitor project, cell-based, Clone20-Shn3RL, cherry-picked (AID 624133); type: functional
[7] = molecular target: COUP transcription factor 2 (Homo sapiens, UniProt P24468); test: Luminescence-based cell-based high throughput dose response assay to identify inhibitors of COUP-TFII (NR2F2).; type: functional;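 note: HEK293 cells transiently cotransfected with COUP-TFII expression vector and reporter; luciferase reporter luminescence driven by COUP-TFII from the pX2-168 reporter plasmid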
cells [8] = type: functional, cell-based
[9] = molecular target: T1, Trace amine-associated receptor 1 (Homo sapiens, UniProt Q96RJ0); test: Fluorescence-based cell-based high throughput dose response assay to identify agonists of the human trace amine associated receptor 1 (TAAR1).; type: functional
T1 sequence (Q96RJ0 whole entry): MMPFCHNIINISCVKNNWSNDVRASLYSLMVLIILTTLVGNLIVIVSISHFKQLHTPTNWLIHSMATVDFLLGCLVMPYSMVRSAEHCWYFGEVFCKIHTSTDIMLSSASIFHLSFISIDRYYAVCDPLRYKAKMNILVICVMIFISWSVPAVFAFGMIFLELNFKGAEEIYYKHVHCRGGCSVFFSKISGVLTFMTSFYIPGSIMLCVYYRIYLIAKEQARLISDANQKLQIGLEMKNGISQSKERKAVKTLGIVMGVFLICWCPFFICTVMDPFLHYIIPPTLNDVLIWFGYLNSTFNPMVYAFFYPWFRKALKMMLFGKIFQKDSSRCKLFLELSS

[10] = molecular target: T1, Trace amine-associated receptor 1; test: Counterscreen for agonists of the human trace amine associated receptor 1 (hTAAR1): Fluorescence-based cell-based high throughput dose response assay to identify hTAAR1 agonist that also desensitize TAAR1 receptor response.; type: functional
cells [11] = type: functional, cell-based; remark: listed apart in the source
[12] = inhibitors of firefly luciferase expression or activity, dose response, H4 neuroglioma cells, luminescence (AID 1990); type: functional, cell-based
[13] = Luminescence Cell-Based Dose Response HTS to Identify Inhibitors of 5'UTR Stem-Loop Driven Prion Protein mRNA Translation in H4 Neuroglioblastoma Cells. [Related pubchem assays: 1827 (Project Summary), 1813 (Primary HTS)]; type: functional
[14] = inhibitors of SNCA 5'UTR-driven reporter translation, confirmation, H4 neuroglioma cells, luminescence (AID 1988); type: functional, cell-based
cells [15] = type: functional, cell-based; remark: listed apart in the source
[16] = molecular target: T2, Nuclear receptor subfamily 0 group B member 1 (Homo sapiens, UniProt P51843); type: functional, cell-based;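 note: HEK293T cells transfected with SF-1 and DAX-1 plus StAR promoter luciferase reporter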
T2 sequence (P51843 whole entry): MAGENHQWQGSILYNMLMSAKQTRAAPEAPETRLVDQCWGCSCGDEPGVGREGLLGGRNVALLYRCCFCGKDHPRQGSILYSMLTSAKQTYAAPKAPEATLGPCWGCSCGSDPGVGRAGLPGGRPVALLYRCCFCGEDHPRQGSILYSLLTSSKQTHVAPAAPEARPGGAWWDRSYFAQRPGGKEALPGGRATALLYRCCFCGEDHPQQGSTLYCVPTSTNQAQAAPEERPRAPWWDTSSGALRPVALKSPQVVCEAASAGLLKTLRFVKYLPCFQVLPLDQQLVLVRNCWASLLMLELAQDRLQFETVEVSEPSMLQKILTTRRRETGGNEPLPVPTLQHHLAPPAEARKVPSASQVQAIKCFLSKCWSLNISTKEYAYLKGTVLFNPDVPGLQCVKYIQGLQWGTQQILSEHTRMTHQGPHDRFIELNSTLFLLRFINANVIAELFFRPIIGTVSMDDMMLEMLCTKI

[17] = molecular target: T3, Disintegrin and metalloproteinase domain-containing protein 17 (Homo sapiens, UniProt P78536); test: exosite inhibitors of ADAM17, dose response, biochemical (AID 743260)
[18] = ADAM10 protease inhibitors, dose response, selectivity assay for ADAM17 exosite inhibitor project, biochemical, FRET peptide substrate, recombinant human ADAM10 (AID 743259);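 note: ADAM10 enzyme cleaving a FRET peptide substrate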
[19] = inhibitors of PGC1a acetylation in cells, dose response, cell-based, cherry-picked samples (AID 720514); type: functional;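 note: potency may reflect raised or lowered acetylation signal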
[20] = molecular target: Induced myeloid leukemia cell differentiation protein Mcl-1 (Homo sapiens, UniProt Q07820); type: functional
[21] = ADAM10 inhibitors, peptide cleavage, dose response, biochemical, QFRET (AID 743254);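 note: ADAM10 enzyme with the DM2 quenched FRET peptide as substrate; EDANS fluorescence gain as the protease cuts the substrate; inhibitor potency against ADAM10 proteolytic activity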
[22] = molecular target: T3, Disintegrin and metalloproteinase domain-containing protein 17; test: ADAM17 protease inhibitors, dose response, counter-screen for ADAM10 exosite inhibitor project, biochemical, quenched FRET substrate (AID 743253)

## O=C1C(NCCCN2CCOCC2)=C(Nc2ccccc2)C(=O)c2ccccc21
[1]
  AC50: > 70 µM (inactive)
[2]
  AC50: > 70 µM (inactive)

## COc1ccc(NC(=O)NNC(=O)COc2ccc3cc(Br)ccc3c2)cc1OC
Major prion protein
  IC50: 5.33 µM (active)
Cells [3]
  IC50: > 138 µM (inactive)

## Cc1ccc(C(=O)NC2CCCc3c2cnn3-c2ccc(F)cc2F)cn1 (stereo not given)
INS1
  AC50: 4.93 µM (active)
[4]
  AC50: 0.921 µM (active)
[5]
  AC50: 2.34 µM (active)
[6]
  AC50: 6.81 µM (active)
[7]
  IC50: 3.66 µM (active)

## Cc1nn(CC(=O)N/N=C/c2cccs2)c(C)c1[N+](=O)[O-]
Cells [8]
  IC50: > 29.9 µM (inactive)
[9]
  EC50: 2.82 µM (active)
[10]
  IC50: > 29.9 µM (inactive)
Cells [11]
  EC50: > 29.9 µM (inactive)

## CN1CCN(c2ccc(NC(=O)c3ccc4ccccc4c3)cc2)CC1
[12]
  EC50: 7.8 µM (inconclusive)
[13]
  EC50: 8.96 µM (inconclusive)
[14]
  EC50: 9.94 µM (inconclusive)
Cells [15]
  IC50: > 67.6 µM (inactive)
[16]
  IC50: > 67.6 µM (inactive)

## COc1ccc(-c2nc3ccc(Br)cn3c2Cc2cccc(F)c2)cc1OC
Major prion protein
  IC50: 6.96 µM (active)
Cells [3]
  IC50: > 138 µM (inactive)

## c1ccc(-n2c(SCc3cccc4ccccc34)nnc2-c2ccccn2)cc1
[17]
  IC50: > 69.4 µM (inactive)
[18]
  IC50: 24.1 µM (inactive)

## CCN1C(C#N)=C(C#N)N=C(C)CC1(C)C
[19]
  AC50: 30.5 µM (active)

## Cn1cccc1CNCCc1ccc(F)cc1
Cells [8]
  IC50: > 29.9 µM (inactive)
[9]
  EC50: 6.31 µM (active)
[10]
  IC50: 20 µM (inactive)
Cells [11]
  EC50: > 29.9 µM (inactive)

## CN(C)c1ccc(NC(=O)c2cn(-c3ccccc3)nc2-c2cccs2)cc1
[20]
  IC50: 2.48 µM (not active)
[21]
  IC50: > 69.5 µM (inactive)
[22]
  IC50: > 69.5 µM (inactive)
